Reference: patent US8524899B2, “Alternative heterocycles for DNA recognition” (California Institute of Technology, priority 2003, dated 2013)

Key:
Type in all cases: binding
[1] = test system: 32P-3′-labeled EcoRI/PvuII restriction fragment of plasmid pDR1 (sites 5′-TGTCTA-3′, 5′-TGTTTA-3′, 5′-TGTATA-3′, 5′-TGTGTA-3′); assay: Quantitative DNase I footprint titration on pDR1 restriction fragment
Protocol: FIG. 4 illustrates the equilibrium association constants Ka[M^−1] for Polyamide Oligomers A-C, N, Q, and P. The reported association constants are the average values obtained from three DNase I footprint titration experiments, with the standard deviation for each data set indicated in the experiments. Assays were carried out at 22° C. at pH 7.0 in the presence of 10 mM Tris-HCl, 10 mM KCl, 10 mM MgCl2, and 5 mM CaCl2 with an equilibration time of 12 h. Specificities are give in brackets under the Ka values and calculated as Ka (match)/Ka (mismatch).
To examine whether an imidazo[4,5-b]pyridine unit Ip can replace a five-membered imidazole ring Im within an eight-ring hairpin polyamide regarding DNA binding affinity and specificity, polyamide oligomer A and its related all five-membered ring hairpin oligomer N were evaluated by DNase I footprint titrations under identical conditions. Quantitative DNase I footprint titration experiments (10 mM Tris-HCl, 10 mM KCl, 10 mM MgCl2, 5 mM CaCl2, pH 7.0, 22° C., equilibration time: 12 h) were performed on a ^32P-3′-labeled EcoRI/PvuII restriction fragment of plasmid pDR1 0 (FIG. 2). This DNA fragment contains four 6-base pair binding sites which differ at one position, 5′-TGTCTA-3′,5′-TGTTTA-3′,5′-TGTATA-3′, and 5′-TGTGTA-3′. The latter one was regarded as the possible match site having a G•C base pair under the Ip/Py or Im/Py pair, respectively.
Construction of plasmid DNA. The plasmid pDR1 was constructed by hybridization of the two oligonucleotides 5′-GATCAGGCTGTC-[…]-GCTGCTGTTTATGGACG-GCTGCTGTATATGGACGG-CTGGGCGA-3′ (SEQ ID NO:1) and 5′-AGCTTCGC-[…]-[…]-3′ (SEQ ID NO:2) followed by ligation into the BamHI/HinDIII restriction fragment of pUC19 using T4 DNA ligase. The resultant plasmid was then used to transform E. coli XL-1 Blue Supercompetent cells. Ampicillin-resistant white colonies were selected from 25 mL Luria-Bertani agar plates containing […] ampicillin, treated with XGAL and IPTG solutions and grown overnight at 37° C. Cells were harvested after overnight growth at 37° C. Large-scale plasmid purification was performed with Qiagen, purification kits. The presence of the desired insert was determined by dideoxy sequencing. DNA concentrations were determined at 260 nm using the relationship 1 OD unit) 50 μg/mL duplex DNA.
Preparation of 3′-End-Labeled DNA Restriction Fragments. The plasmid pDR1 was linearized with EcoRI and PVuII and treated with the Klenow fragment of DNA […], [R-^32P]-dATP, and [R-^32P]-TTP for 3′-end labeling. The labeled 3′-fragment was purified on a 7% nondenaturing polyacrylamide gel (5% cross-linkage) and the desired 284 base pair band isolated after visualization by autoradiography. The DNA was precipitated with 2-propanol, the pellet washed, lyophilized, and resuspended in RNase-free H2O. Chemical sequencing reactions were performed according to published protocols. (Troschütz, R.; Lückel, A. Arch. Pharm., 325, 617-619, 1992.)
DNase I Footprinting. All reactions were carried out in a volume of 400 μL according to published procedures. Quantitation by storage phosphor autoradiography and determination of equilibrium association constants were as previously described. (Trauger, J. W.; Dervan, P. B. Methods Enzymol., 340, 450-466, 2001.)

[2] = test system: EcoRI/PvuII restriction fragment of plasmid pAU2 (5′-TGGXCA-3′); assay: Quantitative DNase I footprint titration, X•Y position, plasmid pAU2; conditions: match and mismatch sites
Text: FIG. 10 illustrates the equilibrium association constants Ka[M^−1] and specificities for polyamide oligomers D-F, R, S, and V on plasmids pAU2 and pCAB2 (X•Y position). […]
(§1) Evaluation of the DNA recognition properties of the new ligands oligomers D, E, and F at the imidazole/benzimidazole position (referred to as R•S position) should reveal the sequence preference of the benzimidazole ring. […] To examine the consequences of the ring replacement for DNA binding in terms of affinity and specificity, the benzimidazole-containing hairpin polyamides oligomers D, E, and F were evaluated by quantitative DNase I footprint titrations and the results compared to those from related oligomers R, S, and V, which were investigated under identical conditions. Quantitative DNase I footprint titration experiments (10 mm Tris-HCl, 10 mm KCl, 10 mm MgCl2, 5 mm CaCl2, pH 7.0, 22° C., equilibration time: 12 h) were performed on ^32P-3′-labeled EcoRI/PvuII restriction fragments of plasmids pPWF2 and pCAB1 (to probe the R•S position, FIG. 7); and pAU2 and pCAB2 (to probe the X•Y position, FIG. 8). Equilibrium association constants (Ka) for the polyamide oligomers at the binding sites of interest were determined as described above in Example 3.

[3] = test system: EcoRI/PvuII restriction fragment of plasmid pPWF2 (5′-TGRACA-3′); assay: Quantitative DNase I footprint titration, R•S position, plasmid pPWF2
Text: (§2) FIG. 9 illustrates the equilibrium association constants Ka[M^−1] and specificities for polyamide oligomers D-F, R, S, and V on plasmids pPWF2 and pCAB1 (R•S position).
(§3) When replacing PyPy, PyIm, and PyHp dimers with BiPy (as in oligomer D), BiIm (as in oligomer E), and BiHp constructs (as in oligomer F), respectively, the question arises whether a) the benzimidazole ring is capable of cooperating with the imidazole ring on the opposite strand of the hairpin polyamide to specifically recognize a C•G base pair according to the binding model and the general pairing rules, and b) whether the steric and electronic peculiarities of the benzimidazole ring disturb the binding ability of the adjacent heterocycle. In order to address this question for the given polyamide design, the recognition behavior of the benzimidazole-containing polyamides was probed in two of the six base pair positions R•S and X•Y of the recognition sequence (5′-TGRACA-3′ and 5′-TGGXCA-3′ for oligomers D and F; 5′-TGRCAA-3′ and 5′-TGGXAA-3′ for oligomer E; FIG. 6) and compared with the DNA-binding ability of the related all five-membered oligomers R, S, and V at the same recognition sequences.
(§4) Evaluation of the DNA recognition properties of the new ligands oligomers D, E, and F at the imidazole/benzimidazole position (referred to as R•S position) should reveal the sequence preference of the benzimidazole ring. The binding properties at the neighboring ring position (referred to as X•Y position) were expected to disclose whether the recognition capabilities of the adjacent internal five-membered ring are disturbed by the benzimidazole moiety. To examine the consequences of the ring replacement for DNA binding in terms of affinity and specificity, the benzimidazole-containing hairpin polyamides oligomers D, E, and F were evaluated by quantitative DNase I footprint titrations and the results compared to those from related oligomers R, S, and V, which were investigated under identical conditions. Quantitative DNase I footprint titration experiments (10 mm Tris-HCl, 10 mm KCl, 10 mm MgCl2, 5 mm CaCl2, pH 7.0, 22° C., equilibration time: 12 h) were performed on ^32P-3′-labeled EcoRI/PvuII restriction fragments of plasmids pPWF2 and pCAB1 (to probe the R•S position, FIG. 7); and pAU2 and pCAB2 (to probe the X•Y position, FIG. 8). Equilibrium association constants (Ka) for the polyamide oligomers at the binding sites of interest were determined as described above in Example 3.

[4] = test system: EcoRI/PvuII restriction fragment of plasmid pCAB1 (5′-TGRCAA-3′); assay: Quantitative DNase I footprint titration, R•S position, plasmid pCAB1
Text: as §2, §3, §4

[5] = test system: EcoRI/PvuII restriction fragment of plasmid pCAB2 (5′-TGGXAA-3′); assay: Quantitative DNase I footprint titration, X•Y position, plasmid pCAB2
Text: FIG. 10 illustrates the equilibrium association constants Ka[M^−1] and specificities for polyamide oligomers D-F, R, S, and V on plasmids pAU2 and pCAB2 (X•Y position).
When replacing PyPy, PyIm, and PyHp dimers with BiPy (as in oligomer D), BiIm (as in oligomer E), and BiHp constructs (as in oligomer F), respectively, the question arises whether a) the benzimidazole ring is capable of cooperating with the imidazole ring on the opposite strand of the hairpin polyamide to specifically recognize a C•G base pair according to the binding model and the general pairing rules, and b) whether the steric and electronic peculiarities of the benzimidazole ring disturb the binding ability of the adjacent heterocycle. […]
as §1

## CNC(=O)c1cc(NC(=O)c2cc(NC(=O)c3cc(NC(=O)c4cc(NC(=O)[C@H](N)CCNC(=O)c5cc(NC(=O)c6ccc7nc(-c8cc(NC(=O)c9nccn9C)cn8C)[nH]c7n6)cn5C)cn4C)cn3C)cn2C)cn1C [A]
[1]; G•C match vs A•T and T•A sites
  specificity of match site versus A•T and T•A sites: similar
[1]; G•C match vs C•G site
  preference for match site 5′-TGTGTA-3′ versus the C•G site: slight decrease
[1]; site 5′-TGTGTA-3′
  higher affinity than related all five-membered ring oligomer: 5 fold
[1]; site 5′-TGTGTA-3′ (G•C), pH 7.0, 22° C., equilibration 12 h
  equilibrium association constant Ka: 1.2e+10 M⁻¹

## CNC(=O)c1cc(NC(=O)c2cc(NC(=O)c3cc(NC(=O)c4cc(NC(=O)[C@H](N)CCNC(=O)c5cc(NC(=O)c6ccc7nc(-c8cc(NC(=O)c9nccn9C)cn8C)[nH]c7c6)cn5C)cn4C)cn3C)cn2C)cn1C [C]
[1]; B vs Q, C vs P
  binding site preference, affinity and specificity compared with related all five-membered ring oligomer: same binding site preference

## CNC(=O)c1cc(NC(=O)c2ccc3nc(-c4cc(NC(=O)c5nc(NC(=O)[C@H](N)CCNC(=O)c6cc(NC(=O)c7cc(NC(=O)c8nc(NC(=O)c9nccn9C)cn8C)cn7C)cn6C)cn5C)cn4C)[nH]c3c2)cn1C [D]
[2]
  binding affinities and specificities compared with related oligomers R, V, X•Y position: same order of magnitude
[3]; 5′-TGRACA-3′ match site, pH 7.0, 22° C., 12 h
  match site Ka, R•S position: 4.9e+10 M⁻¹
[3]; D vs R, F vs V
  match site affinity compared with related all five-membered oligomer, R•S position: comparable
  single base pair mismatch specificities compared with related oligomer, R•S position: lower by roughly one order of magnitude

## CNC(=O)c1cc(NC(=O)c2ccc3nc(-c4nc(NC(=O)c5cc(NC(=O)[C@H](N)CCNC(=O)c6cc(NC(=O)c7cc(NC(=O)c8nc(NC(=O)c9nccn9C)cn8C)cn7C)cn6C)cn5C)cn4C)[nH]c3c2)cn1C [E]
[4]; 5′-TGRCAA-3′ match site, pH 7.0, 22° C., 12 h
  match site Ka, R•S position: 3.1e+10 M⁻¹
[4]; E vs S
  match site affinity compared with related all five-membered oligomer, R•S position: six to seven-fold higher
[4]; R=A
  match site/mismatch site discrimination compared with related oligomer, R•S position: comparable
[4]; R=T or C
  match site/mismatch site discrimination compared with related oligomer, R•S position: at least ten-fold lower
[5]; 5′-TGGXAA-3′ match site, pH 7.0, 22° C., 12 h
  match site Ka, X•Y position: 1.9e+10 M⁻¹
[5]; E vs S
  match site affinity compared with related oligomer S, X•Y position: six-fold higher
  single base pair mismatch specificities compared with related oligomer S, X•Y position: mildly diminished
